According to ChEMBL document CHEMBL1201862, “PubChem BioAssay data set” (2004):
Activity calls are given as the source filed them.

Tests used:
[1] = system: HEK293; experiment: inhibitors of LMP1-driven NF-kB reporter, dose response, cell-based, HEK293, luciferase, cherry-pick (AID 588343); assay type: functional; details: Homo sapiens
[2] = inhibitors of HIV Env-driven cell fusion, dose response, cherry-pick (AID 652057); assay type: functional, cell-based
[3] = ZM109 Env clade C HIV-1 fusion inhibitors, dose response, HeLa effector, CEM target cells, luciferase, cherry-pick (AID 652058); assay type: functional, cell-based
[4] = inhibitors of clade B AD8 Env fusion, dose response, cell-based, cherry-pick (AID 652062); assay type: functional;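 note: luciferase signal from cell-cell fusion driven by HIV-1 clade B AD8 Env; potency is for inhibitors of fusion seen as a drop in luminescence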
[5] = off-target signal loss in HeLa-CEM21 co-culture – HeLa F-luc CTL cells, cherry-picked, counter-screen for HIV-1 Env fusion inhibitor project, dose response (AID 652040); assay type: functional, cell-based;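 note: potency for signal decrease marking cytotoxic or nonspecific inhibition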
[6] = target: T1, Fructose-bisphosphate aldolase (Mycobacterium tuberculosis, UniProt P9WQA3); experiment: Fluorescence-based biochemical high throughput dose response assay for inhibitors of the fructose-bisphosphate aldolase (FBA) of M. tuberculosis.; assay type: functional
T1 sequence (P9WQA3 whole entry): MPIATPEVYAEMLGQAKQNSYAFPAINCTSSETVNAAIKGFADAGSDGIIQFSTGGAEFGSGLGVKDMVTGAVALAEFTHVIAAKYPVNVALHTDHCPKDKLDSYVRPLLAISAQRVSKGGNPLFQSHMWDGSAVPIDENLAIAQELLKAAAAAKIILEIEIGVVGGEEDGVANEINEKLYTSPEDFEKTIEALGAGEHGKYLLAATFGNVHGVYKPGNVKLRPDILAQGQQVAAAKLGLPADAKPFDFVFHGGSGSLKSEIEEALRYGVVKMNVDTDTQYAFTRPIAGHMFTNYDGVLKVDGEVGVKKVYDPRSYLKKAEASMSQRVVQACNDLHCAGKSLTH

[7] = target: T2, Cytochrome P450 1A2 (Homo sapiens, UniProt P05177);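 note: PubChem cytochrome P450 panel assay, CYP1A2 panel member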
T2 sequence (P05177 whole entry): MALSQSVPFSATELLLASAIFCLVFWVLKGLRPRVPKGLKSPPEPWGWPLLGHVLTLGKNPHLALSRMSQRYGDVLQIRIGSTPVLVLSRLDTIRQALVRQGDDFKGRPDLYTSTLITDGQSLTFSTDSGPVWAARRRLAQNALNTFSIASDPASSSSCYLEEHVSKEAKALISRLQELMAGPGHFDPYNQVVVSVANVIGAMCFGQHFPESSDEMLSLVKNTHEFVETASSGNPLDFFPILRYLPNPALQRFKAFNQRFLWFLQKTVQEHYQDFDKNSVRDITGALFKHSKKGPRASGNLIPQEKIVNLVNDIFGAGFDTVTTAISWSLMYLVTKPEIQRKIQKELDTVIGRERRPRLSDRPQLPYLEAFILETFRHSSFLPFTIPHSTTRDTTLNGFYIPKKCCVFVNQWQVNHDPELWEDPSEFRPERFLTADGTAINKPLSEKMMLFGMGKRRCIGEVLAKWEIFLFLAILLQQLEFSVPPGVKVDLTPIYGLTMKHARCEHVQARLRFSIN

[8] = target: Cytochrome P450 3A4 (Homo sapiens, UniProt P08684);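 note: CYP3A4 tested as one member of a cytochrome P450 panel screen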
[9] = target: Genome polyprotein (dengue virus type 2, UniProt P29990); experiment: Dengue-2 NS5 methyltransferase inhibitors, primary screen, biochemical, confirmation dose response (AID 588689); assay type: functional
[10] = target: T3, Histone-lysine N-methyltransferase NSD2 (Homo sapiens, UniProt O96028); assay type: biochemical
T3 sequence (O96028 whole entry): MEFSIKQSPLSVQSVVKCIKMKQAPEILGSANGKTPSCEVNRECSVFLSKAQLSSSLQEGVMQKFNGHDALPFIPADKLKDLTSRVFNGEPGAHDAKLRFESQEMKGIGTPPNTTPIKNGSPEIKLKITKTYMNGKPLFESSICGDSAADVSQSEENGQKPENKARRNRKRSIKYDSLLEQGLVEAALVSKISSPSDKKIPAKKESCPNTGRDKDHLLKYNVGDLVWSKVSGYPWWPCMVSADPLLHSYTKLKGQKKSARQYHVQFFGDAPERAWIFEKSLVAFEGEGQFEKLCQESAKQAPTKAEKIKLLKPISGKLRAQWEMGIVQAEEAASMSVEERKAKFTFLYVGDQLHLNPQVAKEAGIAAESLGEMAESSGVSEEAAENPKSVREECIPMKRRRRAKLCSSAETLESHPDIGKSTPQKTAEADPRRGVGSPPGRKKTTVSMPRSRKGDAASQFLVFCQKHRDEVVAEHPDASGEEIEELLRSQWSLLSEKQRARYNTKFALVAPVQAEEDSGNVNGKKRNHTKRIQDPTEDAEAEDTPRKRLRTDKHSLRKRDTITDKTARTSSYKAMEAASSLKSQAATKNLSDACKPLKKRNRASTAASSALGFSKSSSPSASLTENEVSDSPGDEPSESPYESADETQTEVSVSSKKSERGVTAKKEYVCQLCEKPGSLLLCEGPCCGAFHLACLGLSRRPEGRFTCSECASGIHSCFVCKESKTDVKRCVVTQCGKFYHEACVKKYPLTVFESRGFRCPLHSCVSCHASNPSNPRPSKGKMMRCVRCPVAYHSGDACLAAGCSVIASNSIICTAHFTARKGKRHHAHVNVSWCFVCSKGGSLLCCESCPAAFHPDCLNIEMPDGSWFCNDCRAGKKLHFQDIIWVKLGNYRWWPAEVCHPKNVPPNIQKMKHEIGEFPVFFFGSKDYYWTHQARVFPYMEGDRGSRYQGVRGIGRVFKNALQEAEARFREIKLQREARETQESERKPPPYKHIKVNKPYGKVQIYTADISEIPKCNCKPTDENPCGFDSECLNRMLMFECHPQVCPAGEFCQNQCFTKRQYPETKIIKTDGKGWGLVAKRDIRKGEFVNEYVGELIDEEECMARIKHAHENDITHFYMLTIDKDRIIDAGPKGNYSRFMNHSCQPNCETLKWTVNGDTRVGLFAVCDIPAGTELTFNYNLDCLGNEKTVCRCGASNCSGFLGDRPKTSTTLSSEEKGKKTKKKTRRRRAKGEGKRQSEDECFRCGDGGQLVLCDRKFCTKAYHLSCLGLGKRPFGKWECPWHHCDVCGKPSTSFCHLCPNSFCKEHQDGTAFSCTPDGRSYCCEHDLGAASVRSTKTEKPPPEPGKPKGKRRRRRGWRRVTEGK

[11] = system: H4; experiment: Luminescence Cell-Based Dose Response HTS to Identify Activators of 5'UTR Stem-Loop Driven Prion Protein mRNA Translation in H4 Neuroglioblastoma Cells. [Related pubchem assays: 1829 (Project Summary), 1814 (Primary HTS)]; assay type: functional; details: Homo sapiens
[12] = target: T4, Nuclear receptor subfamily 0 group B member 1 (Homo sapiens, UniProt P51843); assay type: functional, cell-based;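 note: HEK293T cells transfected with SF-1 and DAX-1 plus StAR promoter luciferase reporter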
T4 sequence (P51843 whole entry): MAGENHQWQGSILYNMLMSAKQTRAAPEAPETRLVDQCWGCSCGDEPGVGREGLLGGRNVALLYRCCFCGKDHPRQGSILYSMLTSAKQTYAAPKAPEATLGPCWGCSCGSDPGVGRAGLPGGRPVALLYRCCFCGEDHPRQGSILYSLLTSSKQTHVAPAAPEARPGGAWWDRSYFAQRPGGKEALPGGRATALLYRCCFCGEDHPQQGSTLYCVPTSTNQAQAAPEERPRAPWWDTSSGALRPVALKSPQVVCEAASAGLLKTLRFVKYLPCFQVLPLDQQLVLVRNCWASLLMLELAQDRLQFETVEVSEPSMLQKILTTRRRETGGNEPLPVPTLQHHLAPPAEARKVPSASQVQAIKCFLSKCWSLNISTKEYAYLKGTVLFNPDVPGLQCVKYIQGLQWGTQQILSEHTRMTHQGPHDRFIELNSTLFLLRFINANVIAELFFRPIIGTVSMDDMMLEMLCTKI

[13] = cells; assay type: functional, cell-based
[14] = Luminescence Cell-Based Dose Confirmation HTS to Identify Activators of 5'UTR Stem-Loop Driven Alpha-Synuclein mRNA Translation in H4 Neuroglioblastoma Cells. [Related pubchem assays: 1829 (Project Summary), 1814 (Primary HTS)]; assay type: functional
[15] = Luminescence Cell-Based Dose Response HTS to Identify Activators of Luciferase Translation or Activity in H4 […] Cells. [Related pubchem assays: 1829 (Project Summary), 1814 (Primary HTS)]; assay type: functional
[16] = target: T5, Short transient receptor potential channel 4 (Mus musculus, UniProt Q9QUQ5); experiment: mouse TRPC4 channel inhibitors, dose response, cell-based, HEK293 TRPC4/mu-opioid, Fluo-4 calcium (AID 434942); assay type: functional;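 note: potency of inhibitors blocking the TRPC4 calcium response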
T5 sequence (Q9QUQ5 whole entry): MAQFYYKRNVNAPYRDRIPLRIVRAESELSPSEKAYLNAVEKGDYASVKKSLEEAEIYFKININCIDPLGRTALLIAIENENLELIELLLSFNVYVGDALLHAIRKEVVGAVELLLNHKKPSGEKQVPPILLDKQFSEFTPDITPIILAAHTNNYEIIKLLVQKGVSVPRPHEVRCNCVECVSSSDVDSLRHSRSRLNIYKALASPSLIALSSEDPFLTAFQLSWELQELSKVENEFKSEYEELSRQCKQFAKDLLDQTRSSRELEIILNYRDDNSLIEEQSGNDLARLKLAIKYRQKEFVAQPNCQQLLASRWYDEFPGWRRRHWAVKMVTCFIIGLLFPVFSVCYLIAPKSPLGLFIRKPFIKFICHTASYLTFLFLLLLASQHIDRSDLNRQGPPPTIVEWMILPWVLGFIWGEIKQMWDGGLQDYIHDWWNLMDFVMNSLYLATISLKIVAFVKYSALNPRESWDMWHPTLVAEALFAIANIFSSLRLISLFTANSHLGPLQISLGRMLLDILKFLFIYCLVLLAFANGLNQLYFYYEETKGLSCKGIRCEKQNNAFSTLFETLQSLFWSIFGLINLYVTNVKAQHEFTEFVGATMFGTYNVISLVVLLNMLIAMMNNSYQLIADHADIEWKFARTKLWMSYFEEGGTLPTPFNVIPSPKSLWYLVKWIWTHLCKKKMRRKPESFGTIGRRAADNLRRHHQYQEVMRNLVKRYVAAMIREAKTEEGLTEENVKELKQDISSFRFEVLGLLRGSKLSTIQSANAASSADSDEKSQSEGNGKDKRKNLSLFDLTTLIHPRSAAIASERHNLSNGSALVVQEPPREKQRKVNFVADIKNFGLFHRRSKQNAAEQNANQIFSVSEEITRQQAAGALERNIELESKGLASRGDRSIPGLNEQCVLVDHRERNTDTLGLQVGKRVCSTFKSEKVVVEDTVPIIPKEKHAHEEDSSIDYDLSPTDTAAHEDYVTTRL

[17] = cells; assay type: functional, cell-based; remark: listed apart in the source
[18] = cells; assay type: functional, cell-based; remark: listed apart in the source
[19] = target: Large T antigen (Simian virus 40, UniProt P03070); assay type: functional, Betapolyomavirus macacae;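 note: Confirmatory-stage PubChem screen for compounds that inhibit SV40 T antigen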
Chain of Large T antigen (P03070 whole entry): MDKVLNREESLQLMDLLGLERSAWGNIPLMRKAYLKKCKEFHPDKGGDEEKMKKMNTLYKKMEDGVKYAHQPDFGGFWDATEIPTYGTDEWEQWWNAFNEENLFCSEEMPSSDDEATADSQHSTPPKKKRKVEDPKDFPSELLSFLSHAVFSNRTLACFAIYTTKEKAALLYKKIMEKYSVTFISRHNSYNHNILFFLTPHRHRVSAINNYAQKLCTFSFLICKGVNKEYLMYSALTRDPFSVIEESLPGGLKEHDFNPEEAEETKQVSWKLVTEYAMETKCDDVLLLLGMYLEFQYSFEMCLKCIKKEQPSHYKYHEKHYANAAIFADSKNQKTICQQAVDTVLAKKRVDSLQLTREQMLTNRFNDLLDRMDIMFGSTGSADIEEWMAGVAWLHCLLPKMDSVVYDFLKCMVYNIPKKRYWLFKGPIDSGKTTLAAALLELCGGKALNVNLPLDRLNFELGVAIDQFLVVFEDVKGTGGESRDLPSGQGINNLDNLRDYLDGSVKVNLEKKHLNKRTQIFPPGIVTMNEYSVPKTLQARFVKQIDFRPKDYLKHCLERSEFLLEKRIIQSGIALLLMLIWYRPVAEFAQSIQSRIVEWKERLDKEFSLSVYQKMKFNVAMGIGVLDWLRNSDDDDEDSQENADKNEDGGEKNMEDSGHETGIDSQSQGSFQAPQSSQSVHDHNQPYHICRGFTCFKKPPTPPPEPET

Chain of Genome polyprotein (P29990 2492-3391 limits assumed): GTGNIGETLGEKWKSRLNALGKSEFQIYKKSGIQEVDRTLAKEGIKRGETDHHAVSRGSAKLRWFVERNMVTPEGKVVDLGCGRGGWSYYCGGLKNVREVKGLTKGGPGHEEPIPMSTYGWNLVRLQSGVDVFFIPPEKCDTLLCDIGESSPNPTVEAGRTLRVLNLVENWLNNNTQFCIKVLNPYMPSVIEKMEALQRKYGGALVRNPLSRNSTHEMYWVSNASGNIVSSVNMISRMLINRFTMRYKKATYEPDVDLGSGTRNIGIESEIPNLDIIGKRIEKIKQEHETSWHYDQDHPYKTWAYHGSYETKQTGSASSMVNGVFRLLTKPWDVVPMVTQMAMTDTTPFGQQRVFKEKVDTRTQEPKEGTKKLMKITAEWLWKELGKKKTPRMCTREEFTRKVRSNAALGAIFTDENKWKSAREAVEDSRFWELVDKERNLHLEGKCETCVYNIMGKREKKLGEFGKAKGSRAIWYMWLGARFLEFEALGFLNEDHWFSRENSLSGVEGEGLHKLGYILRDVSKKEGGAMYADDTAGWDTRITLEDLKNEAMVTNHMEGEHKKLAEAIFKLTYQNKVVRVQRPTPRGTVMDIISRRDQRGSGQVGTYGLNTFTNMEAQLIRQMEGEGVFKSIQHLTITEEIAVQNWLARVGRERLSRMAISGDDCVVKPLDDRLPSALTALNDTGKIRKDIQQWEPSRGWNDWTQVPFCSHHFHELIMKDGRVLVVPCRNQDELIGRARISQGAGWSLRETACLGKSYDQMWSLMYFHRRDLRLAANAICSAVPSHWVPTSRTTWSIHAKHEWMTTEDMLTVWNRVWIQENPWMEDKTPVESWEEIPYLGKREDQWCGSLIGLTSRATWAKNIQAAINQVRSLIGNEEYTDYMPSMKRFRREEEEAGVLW
Chain of Cytochrome P450 3A4 (P08684 whole entry): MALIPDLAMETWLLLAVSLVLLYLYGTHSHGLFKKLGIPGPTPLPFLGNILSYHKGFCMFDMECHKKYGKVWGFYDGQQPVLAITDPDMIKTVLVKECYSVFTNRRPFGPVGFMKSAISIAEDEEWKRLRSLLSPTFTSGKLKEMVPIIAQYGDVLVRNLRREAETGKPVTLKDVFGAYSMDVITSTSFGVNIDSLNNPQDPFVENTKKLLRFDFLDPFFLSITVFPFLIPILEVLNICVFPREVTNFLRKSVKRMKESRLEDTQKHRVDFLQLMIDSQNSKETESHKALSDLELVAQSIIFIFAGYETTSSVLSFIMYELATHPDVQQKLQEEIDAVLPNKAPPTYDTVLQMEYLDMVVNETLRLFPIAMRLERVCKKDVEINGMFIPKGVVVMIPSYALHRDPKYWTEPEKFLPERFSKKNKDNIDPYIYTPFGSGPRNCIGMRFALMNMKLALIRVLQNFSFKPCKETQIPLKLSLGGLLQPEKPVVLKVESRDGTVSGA

Compound: C=CCNC1=NN=C(c2cc(C)n(CCOC)c2C)CS1
- AC50 [1]: 2.08 µM (active)
- AC50 [2]: 1.56 µM (active)
- AC50 [3]: 8.09 µM (active)
- AC50 [4]: 4.19 µM (active)
- AC50 [5]: 3.9 µM (active)

Compound: NC(=O)C1CCN(C(=O)CCNS(=O)(=O)c2ccccc2F)CC1
- IC50 [6]: > 9.99 µM (inactive)

Compound: CCn1nc2cc(C(=O)NCC34CC5CC(CC(C5)C3)C4)ccc2c1OC
- AC50 [7]: 12.6 µM (inconclusive)
- IC50 [6]: 1.94 µM (active)
- AC50 [8]: inconclusive

Compound: CCOC(=O)c1c(C)[nH]c(C)c1C(=O)COC(=O)[C@@H](NC(=O)c1ccccc1OCC)C(C)C
- AC50 [2]: 3.71 µM (active)
- AC50 [3]: 2.71 µM (active)
- AC50 [4]: 2.19 µM (active)
- AC50 [5]: 5.72 µM (active)

Compound: Cc1ccc(S(=O)(=O)/N=C2\C=C(NS(=O)(=O)c3ccc(C)cc3)C(=O)c3ccccc32)cc1
- IC50 [9]: 30.6 µM (active)
- AC50 [10]: 2.98 µM (active)

Compound: CCOC(=O)N1CCN(C(=O)c2ccc3oc(CCCc4ccccc4)nc3c2)CC1
- EC50 [11]: 2.2 µM (active)
- IC50 [12]: > 67.5 µM (inactive)
- IC50 [13]: > 67.5 µM (inactive)
- EC50 [14]: 0.579 µM (active)
- EC50 [15]: 0.436 µM (active)

Compound: Oc1ccc(CN2CCCCC2)nc1-c1ccccc1
- IC50 [6]: 3.34 µM (active)
- EC50 [16]: 4.73 µM (active)

Compound: N#Cc1cc(-c2cccc(Cl)c2)cnc1O
- IC50 [6]: 2.29 µM (active)

Compound: Cc1cc(N/N=C/c2ccc(O)cc2O)nc(N2CCOCC2)n1
- EC50 [17]: > 29.9 µM (inactive)
- IC50 [18]: > 29.9 µM (inactive)
- IC50 [19]: > 100 µM (active)

Compound: CCOC(=O)C(NCCc1ccccc1F)(NC(=O)CC)C(F)(F)F (stereo not drawn)
- EC50 [17]: > 29.9 µM (inactive)
- IC50 [18]: > 29.9 µM (inactive)
